# According to ChEMBL document CHEMBL3988442, “University of Dundee, Small-Polar-MMV Screening Library” (2021):
# “And” between values parts separate entries of the source, which are not always exact repeats. Equal values may be shown once.
# Assays:
# Lysine--tRNA ligase = Lysine--tRNA ligase (Plasmodium falciparum (isolate 3D7), UniProt Q8IDJ8); assay: Pf-KRS-1 (Lysyl-RNA Synthetase-1, KRS-1, cytosolic KRS) from Plasmodium falciparum. Inhibitor assay, 384 well plate, luminescence read.; assay type: functional
# Chain of Lysine--tRNA ligase (Q8IDJ8 whole entry): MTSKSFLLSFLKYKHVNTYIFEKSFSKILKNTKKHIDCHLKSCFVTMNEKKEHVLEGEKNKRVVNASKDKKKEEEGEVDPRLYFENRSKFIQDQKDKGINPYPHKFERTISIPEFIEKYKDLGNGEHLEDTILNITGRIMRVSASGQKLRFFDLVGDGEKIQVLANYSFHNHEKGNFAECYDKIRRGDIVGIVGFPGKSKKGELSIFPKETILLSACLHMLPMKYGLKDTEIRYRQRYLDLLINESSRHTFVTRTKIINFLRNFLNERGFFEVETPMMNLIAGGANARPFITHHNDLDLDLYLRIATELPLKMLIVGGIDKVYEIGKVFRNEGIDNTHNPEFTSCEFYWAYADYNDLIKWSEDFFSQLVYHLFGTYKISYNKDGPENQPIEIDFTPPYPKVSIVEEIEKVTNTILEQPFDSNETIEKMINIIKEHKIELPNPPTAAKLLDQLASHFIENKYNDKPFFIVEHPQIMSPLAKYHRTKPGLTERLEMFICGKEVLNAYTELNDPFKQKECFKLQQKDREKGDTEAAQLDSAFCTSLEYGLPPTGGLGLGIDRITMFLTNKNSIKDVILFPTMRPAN
# [1] = target: Polyketide synthase Pks13 (Mycobacterium tuberculosis (strain ATCC 25618 / H37Rv), UniProt I6X8D2); assay: Mycobacterium tuberculosis Polyketide synthase 13 Thioesterase (PKS13); assay type: functional
# Chain of Polyketide synthase Pks13 (I6X8D2 whole entry): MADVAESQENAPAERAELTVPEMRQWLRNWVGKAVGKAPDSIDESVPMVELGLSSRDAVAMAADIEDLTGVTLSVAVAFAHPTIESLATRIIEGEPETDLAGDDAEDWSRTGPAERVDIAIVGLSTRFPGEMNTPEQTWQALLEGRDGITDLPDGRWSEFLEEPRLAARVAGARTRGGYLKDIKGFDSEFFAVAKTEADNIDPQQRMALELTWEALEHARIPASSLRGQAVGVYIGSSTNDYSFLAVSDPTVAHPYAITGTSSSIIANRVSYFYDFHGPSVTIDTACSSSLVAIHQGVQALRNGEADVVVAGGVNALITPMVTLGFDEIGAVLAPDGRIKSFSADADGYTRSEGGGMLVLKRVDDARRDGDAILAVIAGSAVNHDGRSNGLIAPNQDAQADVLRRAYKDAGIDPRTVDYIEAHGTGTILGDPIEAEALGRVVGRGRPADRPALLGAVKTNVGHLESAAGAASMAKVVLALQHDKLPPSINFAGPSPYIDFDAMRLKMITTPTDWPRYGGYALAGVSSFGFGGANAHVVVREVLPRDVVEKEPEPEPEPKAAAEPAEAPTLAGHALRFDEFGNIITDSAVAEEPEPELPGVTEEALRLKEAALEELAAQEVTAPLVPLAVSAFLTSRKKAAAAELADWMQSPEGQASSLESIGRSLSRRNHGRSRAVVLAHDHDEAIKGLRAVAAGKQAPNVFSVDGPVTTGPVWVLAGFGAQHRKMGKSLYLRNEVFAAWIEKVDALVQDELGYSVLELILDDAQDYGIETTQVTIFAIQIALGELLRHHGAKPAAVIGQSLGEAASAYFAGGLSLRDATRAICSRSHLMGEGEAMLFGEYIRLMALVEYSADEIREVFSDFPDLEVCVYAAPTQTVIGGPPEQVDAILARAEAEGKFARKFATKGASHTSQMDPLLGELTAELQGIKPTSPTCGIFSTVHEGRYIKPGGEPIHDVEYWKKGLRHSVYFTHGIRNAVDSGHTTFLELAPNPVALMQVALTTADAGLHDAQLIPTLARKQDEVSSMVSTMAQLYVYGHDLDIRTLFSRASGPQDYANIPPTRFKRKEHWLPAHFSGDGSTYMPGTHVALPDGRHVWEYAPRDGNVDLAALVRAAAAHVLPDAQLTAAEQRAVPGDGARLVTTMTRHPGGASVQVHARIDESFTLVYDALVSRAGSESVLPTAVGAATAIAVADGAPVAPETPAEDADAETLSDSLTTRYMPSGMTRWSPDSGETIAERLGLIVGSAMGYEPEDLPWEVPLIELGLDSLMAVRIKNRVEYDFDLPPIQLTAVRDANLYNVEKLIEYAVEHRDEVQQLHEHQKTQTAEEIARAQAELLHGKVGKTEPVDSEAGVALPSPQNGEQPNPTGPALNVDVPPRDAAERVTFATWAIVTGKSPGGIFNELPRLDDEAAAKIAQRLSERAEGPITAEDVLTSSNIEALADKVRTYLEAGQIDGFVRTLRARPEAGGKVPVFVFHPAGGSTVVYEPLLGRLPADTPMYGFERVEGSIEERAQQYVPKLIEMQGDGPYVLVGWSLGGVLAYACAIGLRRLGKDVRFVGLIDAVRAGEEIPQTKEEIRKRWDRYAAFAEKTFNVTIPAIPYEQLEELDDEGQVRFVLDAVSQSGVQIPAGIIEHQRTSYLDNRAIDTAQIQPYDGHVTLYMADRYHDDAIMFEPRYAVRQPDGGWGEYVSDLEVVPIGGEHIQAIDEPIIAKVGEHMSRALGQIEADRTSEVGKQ
# Wolbachia pipientis = assay: Anti-Wolbachia Cell-Based Screen; assay type: functional; settings: for IC50: Wolbachia pipientis
# Tryptophan--tRNA ligase = Tryptophan--tRNA ligase (Mycobacterium tuberculosis (strain ATCC 25618 / H37Rv), UniProt P9WFT3); assay: Biochemical assay for Mt-TrpRS; assay type: functional
# Chain of Tryptophan--tRNA ligase (P9WFT3 whole entry): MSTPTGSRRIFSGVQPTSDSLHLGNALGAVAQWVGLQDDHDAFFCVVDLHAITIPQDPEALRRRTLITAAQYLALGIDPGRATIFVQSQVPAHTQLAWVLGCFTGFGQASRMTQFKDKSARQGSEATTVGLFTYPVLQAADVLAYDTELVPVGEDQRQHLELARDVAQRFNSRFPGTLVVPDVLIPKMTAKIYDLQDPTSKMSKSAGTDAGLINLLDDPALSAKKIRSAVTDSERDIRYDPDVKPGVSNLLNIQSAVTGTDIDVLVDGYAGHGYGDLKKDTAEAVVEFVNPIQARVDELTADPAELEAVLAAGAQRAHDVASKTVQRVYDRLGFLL
# ClpP1P2 = ClpP1P2 (Mycobacterium tuberculosis (strain ATCC 25618 / H37Rv), UniProt P9WPC3+P9WPC5); assay: in vitro assay to detect presence of AMC directly proportional to the activity of ClpP1P2. GHDDI collaboration.; assay type: functional
# Chain of ClpP1P2 (P9WPC5 whole entry): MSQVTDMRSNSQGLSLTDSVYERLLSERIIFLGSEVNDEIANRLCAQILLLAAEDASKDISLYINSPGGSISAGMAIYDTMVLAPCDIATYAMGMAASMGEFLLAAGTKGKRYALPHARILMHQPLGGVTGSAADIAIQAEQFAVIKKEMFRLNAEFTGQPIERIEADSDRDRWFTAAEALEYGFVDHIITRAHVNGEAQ
# Chain of ClpP1P2 (P9WPC3 whole entry): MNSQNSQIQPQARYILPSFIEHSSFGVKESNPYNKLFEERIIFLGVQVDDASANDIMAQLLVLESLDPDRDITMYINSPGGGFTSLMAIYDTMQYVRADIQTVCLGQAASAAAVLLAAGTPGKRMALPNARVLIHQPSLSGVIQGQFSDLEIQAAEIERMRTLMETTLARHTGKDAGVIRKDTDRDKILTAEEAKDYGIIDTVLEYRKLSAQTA
# Histidine--tRNA ligase = target: T1, Histidine--tRNA ligase (Leishmania infantum, UniProt A4I591); assay: Leishmania infantum Histidine tRNA synthetase (LdHisRS); assay type: functional
# T1 sequence (A4I591 whole entry): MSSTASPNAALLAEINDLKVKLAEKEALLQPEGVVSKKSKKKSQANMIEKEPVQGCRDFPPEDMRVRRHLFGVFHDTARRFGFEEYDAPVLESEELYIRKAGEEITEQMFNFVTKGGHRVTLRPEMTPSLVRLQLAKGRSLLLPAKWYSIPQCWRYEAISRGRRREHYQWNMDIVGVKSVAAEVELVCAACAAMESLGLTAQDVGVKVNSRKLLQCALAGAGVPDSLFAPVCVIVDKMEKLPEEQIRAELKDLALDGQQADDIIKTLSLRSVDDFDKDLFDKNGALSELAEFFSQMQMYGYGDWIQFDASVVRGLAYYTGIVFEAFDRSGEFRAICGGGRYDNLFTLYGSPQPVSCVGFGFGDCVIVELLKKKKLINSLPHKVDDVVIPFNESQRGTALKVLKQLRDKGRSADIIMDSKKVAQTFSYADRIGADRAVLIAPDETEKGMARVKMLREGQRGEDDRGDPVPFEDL
# [2] = target: T2, Coenzyme A biosynthesis bifunctional protein CoaBC (Mycobacterium tuberculosis (strain ATCC 25618 / H37Rv), UniProt P9WNZ1); assay: Biomol Green assay for MtCoaBC inhibitor, OD650 read; assay type: functional
# T2 sequence (P9WNZ1 whole entry): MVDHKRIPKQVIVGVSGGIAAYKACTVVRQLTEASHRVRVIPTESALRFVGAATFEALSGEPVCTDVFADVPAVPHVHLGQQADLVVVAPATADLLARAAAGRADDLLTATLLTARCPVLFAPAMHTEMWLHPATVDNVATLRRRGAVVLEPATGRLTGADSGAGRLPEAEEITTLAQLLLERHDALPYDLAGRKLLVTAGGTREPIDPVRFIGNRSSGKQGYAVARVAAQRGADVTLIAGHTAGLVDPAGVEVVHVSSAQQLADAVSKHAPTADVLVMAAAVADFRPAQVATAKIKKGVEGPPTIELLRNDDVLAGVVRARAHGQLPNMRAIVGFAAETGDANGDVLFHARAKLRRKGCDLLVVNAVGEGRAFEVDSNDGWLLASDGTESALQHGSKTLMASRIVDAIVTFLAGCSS
# Leishmania donovani = assay: Leishmania intramacrophage assay; assay type: functional, organism-based; settings: Leishmania donovani
# [3] = microbe, parasite or virus in culture; settings: Mycobacterium tuberculosis, 96 h, read-out: pIC50 (converted)
# [4] = In vitro enzyme assay to detect hydrolysis of chlorophenol red-beta-D-[…] directly proportional to the number of Toxoplasma stably expressing beta-galactosidase; assay type: functional, organism-based, Toxoplasma gondii; settings: for IC50: Toxoplasma gondii
# [5] = microbe, parasite or virus in culture; settings: Mycobacterium tuberculosis, 72 h, read-out: pIC50 (converted)
Structure (SMILES),IC50 [1],IC50 (ClpP1P2) [µM],also measured
Cc1ncc2c(n1)CN(CCCc1nc3ccccc3o1)CC2,> 100 µM,–,IC50 (Lysine--tRNA ligase): > 50.1 µM
COc1cc(CNC(=O)c2csc(Br)c2)ccn1,–,–,pIC50 (Wolbachia pipientis): 5.03; IC50 (Wolbachia pipientis): 5.94 µM
O=C(Nc1ccnc(OC2CCOC2)c1)c1ccccc1Cl (configuration not stated),–,–,pIC50 (Wolbachia pipientis): 5.461 and 5.05
O=C1O[C@@H]2CN(C3CCOCC3)C[C@@H]2N1CCCc1ccc(F)cc1,–,–,IC50 (Wolbachia pipientis): > 10 µM
CC(c1ccco1)N(C)Cc1cccc(C(=O)Nc2nccn2C)c1 (configuration not stated),–,–,pIC50 (Wolbachia pipientis): 5.538; IC50 (Wolbachia pipientis): 3.77 µM
CCc1cc(C(=O)N2CCC3(CCCN(CC4CC4)C3=O)C2)cs1 (configuration not stated),–,–,IC50 (Wolbachia pipientis): > 10 µM
CCc1nc(N)nc(N2CCCC3(CCN(C)CC3)CC2)c1C,–,–,IC50 (Wolbachia pipientis): > 10 µM
O=C1CC(c2ccc3ccccc3n2)c2c(n[nH]c2C2CCC2)N1 (configuration not stated),–,–,IC50 (Wolbachia pipientis): > 10 µM
Cc1ccccc1C1CN(c2cnn(C)c(=O)c2Cl)CCO1 (configuration not stated),–,–,pIC50 (Wolbachia pipientis): 5.107; IC50 (Wolbachia pipientis): 7.69 µM
Cn1nccc1CCC(=O)N1CCCC(c2cnccn2)C1 (configuration not stated),> 100 µM,–,IC50 (Tryptophan--tRNA ligase): > 195 µM
Cc1cccc(N2CCN(C(=O)c3c(C)nn(C)c3C)CC2)c1C,–,–,pIC50 (Wolbachia pipientis): 5.626; IC50 (Wolbachia pipientis): 2.32 µM
OC1(CN2CCC(Oc3cccc(C(F)(F)F)c3)CC2)CNCCOC1 (configuration not stated),–,–,IC50 (Wolbachia pipientis): > 10 µM
CCn1c(CNC(=O)Nc2nc(C)c(C)o2)nc2ccccc21,–,–,pIC50 (Wolbachia pipientis): 5.724; IC50 (Wolbachia pipientis): 1.91 µM
Cc1nn(C)c2nc(N3CCCCC3c3ccc(F)cc3)sc12 (configuration not stated),–,–,pIC50 (Wolbachia pipientis): 5.674; IC50 (Wolbachia pipientis): 2.24 µM
Cn1c(=O)n(C)c2cc(C3SCC(=O)Nc4ccsc43)ccc21 (configuration not stated),–,–,pIC50 (Wolbachia pipientis): 5.481; IC50 (Wolbachia pipientis): 2.44 µM
CCc1sc(C(=O)NC2CC2)cc1C,–,–,IC50 (Wolbachia pipientis): > 10 µM
COc1cnc(N2CC(N3CCOCC3)C2)nc1-c1ccnn1C,52.6 µM and 31.8 µM,> 100,IC50 (Histidine--tRNA ligase): 5.05 µM and 10.5 µM; IC50 [2]: > 50.1 µM
O=C(c1ccccc1)C1CCN(c2cncc(-n3cccn3)n2)CC1,29 µM and 33.8 µM,–,IC50 (Leishmania donovani): > 50.1 µM
NC(=O)c1ccccc1-n1cc(-c2cccc(C(=O)O)c2)cn1,> 100 µM,–,IC50 (Histidine--tRNA ligase): 88.1 µM and > 100 µM
CCCOc1ccc(Cl)cc1CNc1ncnc2oc(C)nc12,12.3 µM and 19.8 µM,–,IC50 [3]: > 50.1 µM; IC50 [4]: 12.6 µM; IC50 [5]: > 50.1 µM
Cc1ccc2[nH]c(CO[C@H]3CN(c4ccc(C#N)cn4)C[C@H]3F)nc2c1,26.6 µM,7.25,IC50 (Lysine--tRNA ligase): > 50.1 µM; IC50 (Histidine--tRNA ligase): 27.1 µM and 37.7 µM; IC50 [2]: > 50.1 µM
CC(C)c1cc(CN2CCC(CC(=O)O)CC2)no1,12.3 µM and 7.76 µM,–,IC50 (Tryptophan--tRNA ligase): > 195 µM
CC(C)c1cc(N2CCC(N)CC2)n2nccc2n1,> 100 µM,–,IC50 (Leishmania donovani): > 50.1 µM
CCOc1cc(/C=C/c2ncc(C(=O)O)s2)cc(Br)c1O,> 100 µM and 24.3 µM,–,IC50 [2]: > 30.2 µM
CNS(=O)(=O)c1csc(C(=O)N(C)Cc2ccccc2C)c1,> 100 µM,–,IC50 (Tryptophan--tRNA ligase): > 195 µM
CNC(=O)c1cc2c(nc1NCC(C)C)CCN(S(C)(=O)=O)CC2,> 100 µM and 16.4 µM,> 100,–
COCCNc1nc2c(c(NCC3CCOC3)n1)CCNCC2 (configuration not stated),> 100 µM,–,IC50 (Leishmania donovani): > 50.1 µM

Structure (SMILES),IC50 [1],IC50 (ClpP1P2) [µM],also measured
CCn1cc(-c2cc(-c3ccn(C)c3)nc(N)c2C#N)cc1C#N,51.8 µM and 43.6 µM,> 100,–
COc1ccccc1N1CCC(CNS(=O)(=O)c2cccc(C#N)c2)C1 (configuration not stated),49.7 µM and > 100 µM,–,IC50 [2]: > 30.2 µM
CNC(=O)COc1ccc(CNc2cncc(-n3cccn3)n2)cc1,11.8 µM and > 100 µM,> 100,–
CC(C)(C)Nc1nc(-c2cccnc2)c(-c2ccnc(NCCO)n2)s1,> 100 µM,–,IC50 [4]: 5.53 µM
CNC(=O)c1cc2c(nc1NC(C)C)CCNCC2,60.3 µM and 25 µM,> 100,–
O=c1ccc2c(n1CC1CCOCC1)CCN(Cc1ccoc1)CC2,> 100 µM,> 100,–
CC(C)Nc1nc2c(cc1C(=O)NCC1CC1)CCN(S(C)(=O)=O)CC2,20.5 µM and 23.8 µM,> 100,–
CCc1ncc2c(n1)CN(CC1CCCCO1)CC2 (configuration not stated),> 100 µM,–,IC50 (Lysine--tRNA ligase): > 50.1 µM
CC(=O)N1CCC(c2cc(C(F)(F)F)nc3nccn23)CC1,16.7 µM and 13.5 µM,> 100,–
COc1ccccc1-c1ccnc2nc(N3CCCCC3)[nH]c(=O)c12,10.9 µM and 13.9 µM,> 100,–
CNC(=O)N1CCc2cc(C(=O)NCC3CC3)c(NC(C)C)nc2CC1,10.7 µM and 18.7 µM,> 100,–
Cc1csc(CNc2cnc3c(c2)c(C)nn3C)n1,7.6 µM and 15.2 µM,> 100,–
CNC(=O)c1cc2c(nc1NCC1CC1)CCNCC2,72 µM and 24.7 µM,> 100,–
NS(=O)(=O)Cc1ccc(CNc2cncc(-n3cccn3)n2)cc1,19.4 µM and > 100 µM,> 100,–
Cc1cnc2c(C(=O)N3CCCC(OCc4ccccn4)C3)cnn2c1 (configuration not stated),> 100 µM,–,IC50 [2]: > 30.2 µM
CS(=O)(=O)c1ccc(-c2cc(C3CC3)c(C#N)c(N)n2)cc1,10.4 µM and 11.5 µM,> 100,–
CCCOC(C)Cn1ccc2[nH]c(=O)c(C#N)cc2c1=O (configuration not stated),28.5 µM and 11.6 µM,> 100,IC50 (Lysine--tRNA ligase): > 50.1 µM
CCCn1c(N2CCCC2)nc2c(C)nn(C)c2c1=O,> 100 µM,–,IC50 [4]: > 50.1 µM
O=C(c1ccc(COc2ccc(Cl)cc2)o1)N1N=CCC1(O)C(F)(F)F (configuration not stated),17.3 µM and 24.2 µM,–,pIC50 [4]: 5.524; IC50 [4]: 3.1 µM
Cc1ccc(C(=O)N(C)Cc2cc(C)on2)cn1,> 100 µM,> 100,–
Cn1cc(NC(=O)c2cc[nH]n2)cc(Cl)c1=O,> 100 µM,–,IC50 (Lysine--tRNA ligase): > 50.1 µM; IC50 [3]: > 50.1 µM; IC50 [5]: > 50.1 µM
COCc1ccc(CNc2cncc(-n3cccn3)n2)cc1,> 57.5 µM and 18.9 µM,> 100,–
CCc1nc(C2CCCN2C(=O)c2nc(C)n3ccccc23)no1 (configuration not stated),8.2 µM and 6.66 µM,> 100,–
COCC(=O)N1CCC(c2cc(C(F)(F)F)n3ccnc3n2)CC1,28.4 µM and 36.3 µM,> 100,–
CC(C)N(CC(N)=O)C(=O)c1cnc(-c2ccc3c(c2)OCO3)s1,11.1 µM and 12.4 µM,> 100,–
CCOCCOCc1cccc(CNc2cncc(-n3cccn3)n2)c1,29.9 µM and 19 µM,> 100,–
Cn1c(Cn2ncc(N3CCCCC3)cc2=O)nc2ccccc21,> 100 µM,> 100,–
